Results reported in article PMC3072269 (Journal of medicinal chemistry, 2010).
Entries after “also recorded” stand apart in the source; their conditions may differ. Where two headings read alike, the source gives them in different places.

Legend:
PTEN mRNA = experiment: Quantitative RT-PCR analysis of PTEN mRNA splicing in mouse tissues; assay type: in vivo, Balb/c mice; details: for PTEN mRNA in liver, quantitative RT-PCR: i.p. 3x/wk, 7 at 25 mg/kg, 1 at 40 mg/kg, PNAs 10 or 40 mg/kg
PTEN = details: mice, determined in a previous study, cited from earlier work
PTEN protein = experiment: Western blot analysis of PTEN protein in mouse tissues; assay type: in vivo, Balb/c mice; details: 7 at 25 mg/kg, i.p. 3x/wk, 2 wks
[1] = tested on: CD40 cell surface protein expression; details: read-out: IC50, CD40 cell surface protein expression; flow cytometry, FITC labeled antiCD40 antibody; cited from earlier work
PTEN RNA = experiment: Quantitative RT-PCR of PTEN RNA splicing in BCL1 cells; assay type: cell-based, murine; details: data not shown
[2] = amphipathic peptide study, dosing as in Table 6

## D-(KKLLKAALKLAKKG)-TKCTCAGCACATCTACA-Lys [Compound 14]
PTEN mRNA; [2]
  PTEN splicing activity in adipose tissue, quantitative RT-PCR: showed activity at the low dose
  PTEN splicing activity in kidney, quantitative RT-PCR: comparable to the octa(L-lysine) conjugate 9, even when administered at an approximately 4.5-fold lower dose
Tolerability in mice; 8.25 mg/kg i.p., 3x/wk, 2 wks
  histopathological examination of the kidneys, low dose group: nephrotoxicity with proximal tubule necrosis and regeneration
Tolerability in mice; 33 mg/kg i.p.
  liver morphology, high dose group: appeared normal
  spleen size, high dose group: drastically reduced spleen sizes
Tolerability in mice; 33 mg/kg i.p., single administration
  histopathological examination of the kidneys, high dose group: profound proximal tubule necrosis and proteinacous accumulation in Henle’s loop and collecting tubules
Tolerability in mice; 33 mg/kg i.p., arm terminated prematurely
  body weight, high dose group: rapid weight loss after administration of the first dose, indicative of acute toxicity

## 7: antiPTEN phosphorothioate oligonucleotide with 2′-O-MOE wings and a 2′-deoxyribonucleotide gap, CTGCTAGCCTCTGGATTTGA, exon 9 [Compound 7]
PTEN; read-out: Adipose EC50
  EC50: 700 to 1400 nM
PTEN; read-out: Liver EC50
  EC50: 14000 nM
PTEN mRNA; 2 wks
  PTEN mRNA in liver, quantitative RT-PCR: downregulation of total PTEN message (both isoforms)
PTEN protein; 9 at high dose (40 mg/kg)
  PTEN protein in adipose tissue, western blot: significant and comparable downregulation of PTEN protein
PTEN protein; PNAs 10 or 40 mg/kg
  PTEN protein expression in liver, western blot: significant inhibition of PTEN protein expression

## 1: uniform 2′-O-MOE phosphorothioate 20-mer CTCAGCACATCTACAAGAAA, PTEN intron 3:exon 4 (all 2'-MOE, all phosphorothioate, methylation of C not given here) [Compound 1, reference compound]
PTEN mRNA; 2 wks
  PTEN mRNA in liver, quantitative RT-PCR: modest downregulation of full length transcript with upregulation of the alternatively spliced product

## CACAGATGACATTAG-Lys [Compound 8]
[1]
  IC50: 900 nM

## (Lys)2-TKCTCAGCACATCTACA-Lys [Compound 10]
PTEN mRNA; 10 or 40 mg/kg i.p., 3x/wk, 2 wks
  PTEN mRNA splicing in white adipose tissue, quantitative RT-PCR: marginal with the alternatively spliced isoform being upregulated but the full length transcript being unaltered; also recorded: inactive at both doses

## CTCAGCACATCTACA-Lys [Compound 3]
PTEN RNA
  alteration of splicing of PTEN RNA: full length transcript was reduced and the alternatively spliced product was enhanced
